In patent US8329674B2, “Film forming dental compositions and related methods” (3M Innovative Properties Company, priority 2007, dated 2012):
Structures can show the parent of a compound that is named as a salt. Where two headings read alike, the source gives them in different places.

Legend:
Assay type in all cases: cell-based
[1] = tested on: Streptococcus mutans culture (ATCC 25175); assay: Quantitative Biofilm Inhibition Test; details: for activity at 1 % w/w: Streptococcus mutans, ATCC25175, 20 h, read-out: OD Ratio
Experimental: Compounds of the dental compositions of the invention, and comparative compounds, were evaluated for biofilm inhibition activity. Composite dental restorative (available under the trade designation “FILTEK SUPREME” from 3M ESPE Dental Products, St. Paul, Minn.) was placed in a 15 millimeter by 1 millimeter stainless steel die. […] While the die containing the composite restorative was under compression, the composite was irradiated for two minutes using a Model ACE light source (available from SCHOTT North America, Inc., Auburn, N.Y.). The discs of cured composite restorative were then further cured using a Model UniXS light box (available from Heraeus Kulzer, Inc., Armonk, N.Y.) for 1.5 minutes.
The samples were incubated at 37° C. for approximately twenty hours, after which time the cured discs were removed from the broth and were gently rinsed with water. Each disc was placed in a separate test tube containing five milliliters of 1M aqueous sodium hydroxide solution, and each test tube was then sonicated for two minutes using a model SH1012-40-8 ultrasonic generator (manufactured by Branson Ultrasonics Corp., Danbury, Conn.) for two minutes to dislodge biofilm on the disc. The optical absorbance (optical density) of each aqueous sodium hydroxide solution was then measured at 550 nm using a Model ULTROSPEC III UV-visible spectrophotometer (manufactured by Pharmacia AB, Uppsala, Sweden). For each compound of the dental composition, five discs were separately incubated in broth and were evaluated separately to provide five optical density measurements. The average of the five optical density measurements was then calculated. […] The average optical density of the control or comparative samples was determined as described above. […] The ratio was considered to be proportional to the average amount of biofilm on the five cured discs, i.e., relatively low average optical density ratio was considered to be indicative of inhibition of biofilm formation. The ratio for the control was 100%.
(§1) The Quantitative Biofilm Inhibition Test was carried out using five compounds of the dental composition and eleven comparative compounds, each at a concentration of 1 weight percent. […] In addition, the Qualitative Biofilm Inhibition Test was carried out for each Example and Comparative Example, in which each disc was visually examined before it was placed in the tube containing the aqueous sodium hydroxide solution.

[2] = tested on: Streptococcus mutans culture (ATCC 25175); assay: Qualitative Biofilm Inhibition Test; set-up: key: +: refers to a visual assessment that a compound inhibited biofilm formation; −: refers to a visual assessment that either a compound did not inhibit biofilm formation, or that bacteria grew in the culture broth; details: 1 weight percent compound; visible biofilm on disc after incubation and rinse
Experimental: as §1, with “During the procedure for the Quantitative Biofilm Inhibition Test, each cured disc was visually examined after it was removed from the broth (and rinsed with water) and before it was placed in a test tube containing five milliliters of 1M aqueous sodium hydroxide solution. The presence or absence of visible biofilm on a disc was noted. The” for “The”

[3] = tested on: Streptococcus mutans culture (ATCC 25175); assay: Biofilm Inhibition Test: concentration of compound to inhibit biofilm formation at varied sucrose; details: tested at 50 or 150 millimolar
Experimental: Compounds of the dental compositions of the invention, and comparative compounds, were evaluated for biofilm inhibition activity. Composite dental restorative (available under the trade designation “FILTEK SUPREME” from 3M ESPE Dental Products, St. Paul, Minn.) was placed in a 15 millimeter by 1 millimeter stainless steel die. The open ends of the die were then covered with polyester film and the die was subjected to a pressure of 68.95 MPa using a hydraulic press. While the die containing the composite restorative was under compression, the composite was irradiated for two minutes using a Model ACE light source (available from SCHOTT North America, Inc., Auburn, N.Y.). The discs of cured composite restorative were then further cured using a Model UniXS light box (available from Heraeus Kulzer, Inc., Armonk, N.Y.) for 1.5 minutes.
The cured discs of composite restorative were then immersed in ten milliliters of Streptococcus mutans culture (ATCC 25175; 10^6 CFU/mL) prepared in brain heart infusion broth that contained 1.0 weight percent sucrose and 1 weight percent of a compound of the dental composition. The samples were incubated at 37° C. for approximately twenty hours, after which time the cured discs were removed from the broth and were gently rinsed with water. Each disc was placed in a separate test tube containing five milliliters of 1M aqueous sodium hydroxide solution, and each test tube was then sonicated for two minutes using a model SH1012-40-8 ultrasonic generator (manufactured by Branson Ultrasonics Corp., Danbury, Conn.) for two minutes to dislodge biofilm on the disc. The optical absorbance (optical density) of each aqueous sodium hydroxide solution was then measured at 550 nm using a Model ULTROSPEC III UV-visible spectrophotometer (manufactured by Pharmacia AB, Uppsala, Sweden). For each compound of the dental composition, five discs were separately incubated in broth and were evaluated separately to provide five optical density measurements. The average of the five optical density measurements was then calculated. […] The average optical density of the control or comparative samples was determined as described above. The ratio, expressed as a percentage, of the average optical density for each compound sample to the average optical density for a control sample was calculated by dividing the average optical density for each compound sample by the average optical density for a control sample and multiplying the result by one hundred. The ratio was considered to be proportional to the average amount of biofilm on the five cured discs, i.e., relatively low average optical density ratio was considered to be indicative of inhibition of biofilm formation. The ratio for the control was 100%.
During the procedure for the Quantitative Biofilm Inhibition Test, each cured disc was visually examined after it was removed from the broth (and rinsed with water) and before it was placed in a test tube containing five milliliters of 1M aqueous sodium hydroxide solution. The presence or absence of visible biofilm on a disc was noted.
The Biofilm Inhibition Test was carried out, using four compounds of the dental composition, in broth containing 1.0, 2.5, or 5.0 weight percent sucrose and the exemplary compounds of the dental composition at a concentration of either 50 millimolar or 150 millimolar. In Table 2, the millimolar concentration of compound that inhibited biofilm formation is given for each concentration of sucrose. An entry of “n/t” means that the compound was not tested in broth containing the corresponding concentration of sucrose.

Streptococcus mutans = assay: Bacterial Kill Rate Test
Experimental: Compounds of the dental compositions of the invention were evaluated for extent of bacterial kill in culture. Overnight cultures of Streptococcus mutans in brain heart infusion broth (10^6 CFU/mL) was mixed with a 0.1 weight percent, 0.5 weight percent, or 1.0 weight percent aqueous solution of each compound of the dental composition. After a period of 2, 5, or 10 minutes, 1.0 mL of the mixture was transferred via pipette into a first tube containing 9.0 mL of Letheen broth to provide a 10^−1 dilution. The contents of the tube were mixed using a vortex mixer. A 1.0 mL aliquot of this sample was transferred via pipette into a second tube containing 9.0 mL of Letheen broth to provide a 10^−2 dilution. A 0.1 mL aliquot of each dilution was plated and spread in duplicate on sheep blood agar in Petri dishes, using a “hockey stick” applicator, to provide 10^−2 and 10^−3 dilutions, respectively, on each plate. The plates were incubated at 37° C. for a period of 48 to 72 hours, and then the colony forming units were counted. The CFU counts were compared and the log reduction in the counts were calculated. In Table 3, the bacteria count reduction (log reduction) is the difference between the log of the initial bacteria count and the log of the bacteria count after 2, 5, and 10 minutes.

[4] = 1 weight percent compound, broth with 1.0 weight percent sucrose, approx. twenty hours at 37° C., average OD at 550 nm as percentage of control (100%)

Row | SMILES | OD Ratio [1, 4] | Visual Assessment [2] | Bacteria Count Reduction (log reduction) (Streptococcus mutans; 0.1 wt % compound, 2 min.) | Bacteria Count Reduction (log reduction) (Streptococcus mutans; 0.1 wt % compound, 5 min.) | Bacteria Count Reduction (log reduction) (Streptococcus mutans; 0.1 wt % compound, 10 min.) | Bacteria Count Reduction (log reduction) (Streptococcus mutans; 0.5 wt % compound, 2 min.) | Bacteria Count Reduction (log reduction) (Streptococcus mutans; 0.5 wt % compound, 5 min.) | Bacteria Count Reduction (log reduction) (Streptococcus mutans; 0.5 wt % compound, 10 min.) | activity at 1 % w/w [1, 4] | further results
1 | N[C@H]1C(O)O[C@H](CO)[C@@H](O)[C@@H]1O (stereo partly drawn) [Glucosamine HCl, D-glucosamine] | 0% | + | 1.03 log reduction | 0.94 log reduction | 0.97 log reduction | 0.99 log reduction | 0.98 log reduction | 0.93 log reduction |  | Concentration of Compound to Inhibit Biofilm Formation ([3]; 1 wt% Sucrose): 50 mM; Concentration of Compound to Inhibit Biofilm Formation ([3]; 2.5 wt% Sucrose): 50 mM; Concentration of Compound to Inhibit Biofilm Formation ([3]; 5 wt% Sucrose): 50 mM; Bacteria Count Reduction (log reduction) (Streptococcus mutans; 1.0 wt % compound, 2 min.): 0.93 log reduction; Bacteria Count Reduction (log reduction) (Streptococcus mutans; 1.0 wt % compound, 5 min.): 0.99 log reduction; Bacteria Count Reduction (log reduction) (Streptococcus mutans; 1.0 wt % compound, 10 min.): 0.97 log reduction
2 | N[C@H]1C(O)O[C@H](CO)[C@@H](O)[C@@H]1O (stereo partly drawn) [Glucosamine Sulfate, D-glucosamine] | 2% | + | 0.95 log reduction | 0.75 log reduction | 0.87 log reduction | 0.78 log reduction | 0.80 log reduction | 0.81 log reduction |  | Concentration of Compound to Inhibit Biofilm Formation ([3]; 1 wt% Sucrose): 50 mM; Concentration of Compound to Inhibit Biofilm Formation ([3]; 5 wt% Sucrose): 150 mM; Bacteria Count Reduction (log reduction) (Streptococcus mutans; 1.0 wt % compound, 2 min.): 0.95 log reduction; Bacteria Count Reduction (log reduction) (Streptococcus mutans; 1.0 wt % compound, 5 min.): 0.89 log reduction; Bacteria Count Reduction (log reduction) (Streptococcus mutans; 1.0 wt % compound, 10 min.): 0.97 log reduction
3 | OC[C@H]1O[C@@H](O[C@H]2[C@H](O)[C@@H](O)C(O)O[C@@H]2CO)[C@H](O)[C@@H](O)[C@H]1O (stereo partly shown) [Lactose] |  | − |  |  |  |  |  |  |  | activity at 1 % w/w [1]: 82%
4 | OC[C@H]1O[C@@H](OC[C@H]2O[C@@H](O)[C@H](O)[C@@H](O)[C@@H]2O)[C@H](O)[C@@H](O)[C@@H]1O [beta-Gentiobiose] | 124% | − |  |  |  |  |  |  |  | 
5 | OC[C@H]1O[C@@H](O[C@@H]2[C@@H](O)[C@H](O[C@@H]3[C@@H](O)[C@H](O[C@H]4[C@H](O)[C@@H](CO)OC(O)[C@@H]4O)O[C@H](CO)[C@H]3O)O[C@H](CO)[C@H]2O)[C@H](O)[C@@H](O)[C@@H]1O (stereo partly shown) [Laminaritetraose] | 97% | − |  |  |  |  |  |  |  | 
6 | N[C@H]1C(O)O[C@H](CO)[C@H](O)[C@@H]1O (stereo partly drawn) [Galactosamine HCl, D-galactosamine] |  | + | 1.13 log reduction | 1.00 log reduction | 0.96 log reduction | 0.89 log reduction | 1.08 log reduction | 1.31 log reduction | 0% | 
7 | O=C[C@H](O)[C@@H](O)[C@@H](O)[C@H](O)CO [Galactose] |  | − |  |  |  |  |  |  | 87% | 
8 | CC(=O)N[C@H]1C(O)O[C@H](CO)[C@@H](O)[C@@H]1O (stereo partly shown) [N-Acetylglucosamine, reference compound] |  | − | 1.09 log reduction | 1.02 log reduction | 1.04 log reduction | 1.12 log reduction | 1.16 log reduction | 0.99 log reduction | 83% | Bacteria Count Reduction (log reduction) (Streptococcus mutans; 1.0 wt % compound, 2 min.): 1.05 log reduction; Bacteria Count Reduction (log reduction) (Streptococcus mutans; 1.0 wt % compound, 5 min.): 1.12 log reduction; Bacteria Count Reduction (log reduction) (Streptococcus mutans; 1.0 wt % compound, 10 min.): 1.06 log reduction
9 | C[C@H](O)[C@@H](O)[C@@H](O)[C@H](O)C=O [Fucose] |  | − |  |  |  |  |  |  | 121% | 
10 | O=C(CO)[C@@H](O)[C@@H](O)[C@H](O)CO [D-Tagatose] |  | − |  |  |  |  |  |  | 145% | 
11 | CC(=O)N[C@@H]1C(O)O[C@H](CO)[C@@H](O)[C@@H]1O (stereo partly shown) [N-Acetylmannosamine, reference compound] |  | − |  |  |  | 0.93 log reduction | 1.54 log reduction | 1.61 log reduction | 51% | 
12 | OC[C@@H](O)[C@H](O)[C@@H](O)CO [Xylitol] |  | − |  |  |  |  |  |  | 123% | 
13 | CC(=O)N[C@H]1C(O)O[C@H](CO)[C@H](O)[C@@H]1O (stereo partly shown) [N-Acetylgalactosamine] |  | − |  |  |  |  |  |  | 138% | 
